“And” between values parts separate entries of the source, which are not always exact repeats. Identical values can stand only once.
Tested on: hypercholesterolemia in Wistar rats
Test: Model of hypercholesterolemia in rats (oral cholesterol loading)
Assay type: in vivo, rat
Experimental: The study was carried out on male Wistar rats weighing 200±20 g. Hyperlipidemia was induced by oral administration of cholesterol loading, oily cholesterol suspension:
olive oil (Acorsa, Spain)—5 ml/kg weigh of animals;
cholesterol (Sigma, USA)—1 g/kg weight;
sodium cholate (Sigma, USA)—100 mg/kg weight.
As a reference preparation, the preparation from the group of statines “Mevacor” (Lovastatine) manufactured by the firm Merck Sharp & Dohn was used at dose 40 mg/kg. Cholesterol suspension was administered daily in the morning for 10 days. The compounds tested (at dose 500 μg/kg) and the reference preparation (at dose 40 mg/kg) were administered to the animals togester with cholesterol suspension for 10 days. All the animals received a standard briquetted forage.
The animals were divided into the following groups:
“Control”—intact animals (n=5);
“Cholesterol”—rats that orally received cholesterol loading (n=10);
“Lovastatine”—rats that orally received cholesterol loading and Lovastatine (n=10);
“Compound IV”—rats that orally received cholesterol loading and the tested compound IV (n=10).
Blood was sampled at days 5, 8 and 10 of the experiment.
Statistical processing of the hypolipidemic action data of the tested substances was carried out with regard to the “Cholesterol” group (Table 13).
Experimental groups included:
1) “Cholesterol”—rats orally administered with oily cholesterol suspension for 10 days;
2) “Compound IV”—rats orally administered with oily cholesterol suspension and the tested compound N;
3) “Compound IV—1Na”—rats orally administered with oily cholesterol suspension and the tested mono-sodium salt of compound N;
4) “Compound IV—2Na”—rats orally administered with oily cholesterol suspension and the tested di-sodium salt of compound N;
5) “Compound V—1Na”—rats orally administered with oily cholesterol suspension and the tested mono-sodium salt of the compound V;
6) “Compound III—1Na”—rats orally administered with oily cholesterol suspension and the tested mono-sodium salt of the compound III;
7) “Compound II—1Na”—rats orally administered with oily cholesterol suspension and the tested mono-sodium salt of the compound II;
8) “Sim”—rats orally administered with oily cholesterol suspension and Simvastatine;
9) control—intact rats before beginning the test.
At day 10 of the test blood samples were taken following decapitation of the animals. The animals fasted for 12 hours prior to decapitation.
Blood serum total cholesterol, triglycerides and high density lipoprotein cholesterol (HDLC) were measured. Low and very low density lipoprotein cholesterol was calculated by the difference between total cholesterol and HDL cholesterol.
Blood serum total cholesterol and triglycerides were determined using the enzymatic methods.
Cholesterol level in high density lipoproteins (α-LP) was determined using the precipitation method of LDL and VLDL with phosphotungstic acid and magnesium ions.
Data in the tables are presented as a mean value±standard error. Significance of differences between the groups “cholesterol” and “preparation.” was assessed by the two-sampled Student's t-test.

[1] = day 5 of the experiment (Table 15)
[2] = day 5 of the experiment (Table 15), oral with oily cholesterol suspension
[3] = day 8 of the experiment (Table 16)
[4] = day 10 of the experiment (Table 17)
[5] = day 10 of the experiment (Table 21), Monosodium Salt
[6] = day 5 of the experiment (Table 19)
[7] = day 5 of the experiment (Table 19, n = 12 series)
[8] = day 8 of the experiment (Table 20)
[9] = day 10 of the experiment (Table 21)
[10] = rats with cholesterol loading, vs Cholesterol group
[11] = oral 10 days with cholesterol loading, tested compound 500 μg/kg, reference 40 mg/kg (Table 13)

O=C([O-])CCCC(=O)N[C@@H](Cc1c[nH]cn1)C(=O)O.[Na+] [Compound IV-1Na, N^α-glutaryl-L-histidine Monosodium Salt]
Total cholesterol, HDL [1]: 33.1 ± 1.4 mg/100 ml
Total cholesterol, LDL + VLDL [1]: 38.8 ± 2.9 mg/100 ml
Triglycerides, Serum [1]: 106.6 ± 6.2 mg/100 ml
Total cholesterol, Serum [2]: 72.0 ± 3.0 mg/100 ml
Total cholesterol, HDL (day 5 of the experiment (Table 19), Monosodium Salt): 60.7 ± 3.1 mg/100 ml and 55.1 ± 2.8 mg/100 ml
Total cholesterol, Serum (day 5 of the experiment (Table 19, n = 12 series), Monosodium Salt): 94.4 ± 3.4 mg/100 ml and 96.9 ± 4.5 mg/100 ml
Total cholesterol, HDL [3]: 37.1 ± 1.4 mg/100 ml
Total cholesterol, LDL + VLDL [3]: 61.9 ± 6.6 mg/100 ml
Total cholesterol, Serum [3]: 99.1 ± 6.0 mg/100 ml
Triglycerides, Serum [3]: 146.4 ± 11.2 mg/100 ml
Total cholesterol, HDL [4]: 37.7 ± 1.0 mg/100 ml
Total cholesterol, LDL + VLDL [4]: 59.7 ± 7.2 mg/100 ml
Total cholesterol, Serum [4]: 97.4 ± 7.1 mg/100 ml
Triglycerides, Serum [4]: 132.5 ± 8.4 mg/100 ml
Total cholesterol, HDL [5]: 53.4 ± 2.2 mg/100 ml and 52.9 ± 3.8 mg/100 ml
Total cholesterol, LDL + VLDL [5]: 68.7 ± 10.1 mg/100 ml and 70.5 ± 8.9 mg/100 ml
Total cholesterol, Serum [5]: 122.1 ± 9.8 mg/100 ml and 123.3 ± 7.3 mg/100 ml

O=C([O-])CCCC(=O)N[C@@H](Cc1c[nH]cn1)C(=O)[O-].[Na+].[Na+] [Compound IV” 2Na, N^α-glutaryl-L-histidine disodium salt]
Total cholesterol, HDL [1]: 35.0 ± 1.3 mg/100 ml
Total cholesterol, LDL + VLDL [1]: 44.3 ± 2.7 mg/100 ml
Triglycerides, Serum [1]: 88.3 ± 4.8 mg/100 ml
Total cholesterol, Serum [2]: 80.6 ± 2.8 mg/100 ml
Total cholesterol, HDL [3]: 35.9 ± 1.8 mg/100 ml
Total cholesterol, LDL + VLDL [3]: 54.3 ± 5.8 mg/100 ml
Total cholesterol, Serum [3]: 90.2 ± 5.1 mg/100 ml
Triglycerides, Serum [3]: 125.8 ± 9.4 mg/100 ml
Total cholesterol, HDL [4]: 40.0 ± 1.9 mg/100 ml
Total cholesterol, LDL + VLDL [4]: 57.3 ± 4.3 mg/100 ml
Total cholesterol, Serum [4]: 97.9 ± 3.9 mg/100 ml
Triglycerides, Serum [4]: 127.3 ± 6.2 mg/100 ml
effect on serum total triglycerides (in words) (rats with cholesterol loading): lowered serum total triglyceride levels at days 5 and 10

O=C([O-])CCC(=O)N[C@@H](Cc1c[nH]cn1)C(=O)O.[Na+] [Compound V—1Na, N^α-succinyl-L-histidine Monosodium Salt]
effect on serum total triglycerides (in words) (rats with cholesterol loading): ability thereof to lower serum total triglyceride levels

O=C(O)CCC(=O)N[C@@H](Cc1c[nH]c2ccccc12)C(=O)[O-].[Na+] [II-1Na, N^+-succinyl-L-tryptophane Monosodium Salt]
Total cholesterol, HDL [6]: 49.5 ± 3.8 mg/100 ml
Total cholesterol, LDL + VLDL [6]: 60.2 ± 10.6 mg/100 ml
Triglycerides, HDL [6]: 32.6 ± 2.5 mg/100 ml
Triglycerides, LDL + VLDL [6]: 48.2 ± 4.9 mg/100 ml
Triglycerides, Serum [6]: 80.9 ± 5.5 mg/100 ml
Total cholesterol, Serum [7]: 109.7 ± 9.4 mg/100 ml
Total cholesterol, HDL [8]: 52.9 ± 4.1 mg/100 ml
Total cholesterol, LDL + VLDL [8]: 87.9 ± 14.5 mg/100 ml
Total cholesterol, Serum [8]: 140.8 ± 13.6 mg/100 ml
Triglycerides, HDL [8]: 44.5 ± 2.5 mg/100 ml
Triglycerides, LDL + VLDL [8]: 73.9 ± 15.4 mg/100 ml
Triglycerides, Serum [8]: 111.6 ± 17.2 mg/100 ml
Total cholesterol, HDL [9]: 54.7 ± 2.2 mg/100 ml
Total cholesterol, LDL + VLDL [9]: 79.7 ± 12.6 mg/100 ml
Total cholesterol, Serum [9]: 134.4 ± 12.5 mg/100 ml
Triglycerides, HDL [9]: 38.9 ± 2.4 mg/100 ml
Triglycerides, LDL + VLDL [9]: 69.6 ± 11.1 mg/100 ml
Triglycerides, Serum [9]: 108.5 ± 11.3 mg/100 ml

O=C([O-])CCCC(=O)N[C@@H](Cc1c[nH]c2ccccc12)C(=O)O.[Na+] [III-1Na, N^α-glutaryl-L-tryptophan Monosodium Salt]
Total cholesterol, HDL [6]: 49.0 ± 2.1 mg/100 ml
Total cholesterol, LDL + VLDL [6]: 40.0 ± 5.4 mg/100 ml
Triglycerides, HDL [6]: 30.0 ± 2.2 mg/100 ml
Triglycerides, LDL + VLDL [6]: 57.4 ± 9.1 mg/100 ml
Triglycerides, Serum [6]: 87.4 ± 9.4 mg/100 ml
Total cholesterol, Serum [7]: 89.0 ± 5.0 mg/100 ml
Total cholesterol, HDL [8]: 48.4 ± 2.7 mg/100 ml
Total cholesterol, LDL + VLDL [8]: 60.4 ± 8.3 mg/100 ml
Total cholesterol, Serum [8]: 108.8 ± 8.2 mg/100 ml
Triglycerides, HDL [8]: 45.2 ± 3.2 mg/100 ml
Triglycerides, LDL + VLDL [8]: 79.2 ± 7.7 mg/100 ml
Triglycerides, Serum [8]: 124.4 ± 8.9 mg/100 ml
Total cholesterol, HDL [9]: 48.8 ± 2.4 mg/100 ml
Total cholesterol, LDL + VLDL [9]: 53.5 ± 7.3 mg/100 ml
Total cholesterol, Serum [9]: 102.3 ± 6.9 mg/100 ml
Triglycerides, HDL [9]: 34.3 ± 2.3 mg/100 ml
Triglycerides, LDL + VLDL [9]: 75.0 ± 8.5 mg/100 ml
Triglycerides, Serum [9]: 109.3 ± 10.5 mg/100 ml
effect on HDL cholesterol (in words) (rats with cholesterol loading): did not change
effect on serum total triglycerides (in words) (rats with cholesterol loading): did not change
lowered cholesterol of the VLDL+LDL fractions [10]: 40%
lowered total cholesterol [10]: 29%

CC[C@H](C)C(=O)O[C@H]1C[C@@H](C)C=C2C=C[C@H](C)[C@H](CC[C@@H]3C[C@@H](O)CC(=O)O3)[C@H]21 [Lovastatine, reference compound]
Total cholesterol, CHDL [11]: 50.6 ± 1.3 mg/100 ml
Total cholesterol, CLLD + CLVLD [11]: 49.9 ± 0.9 mg/100 ml
Total cholesterol, Liver [11]: 2.41 ± 0.17 mg/g of tissue
Total cholesterol, Serum [11]: 100.5 ± 6.7 mg/100 ml
Triglycerids, Liver [11]: 6.25 ± 0.13 mg/g of tissue
Triglycerids, Serum [11]: 93.6 ± 7.5 mg/100 ml

CCC(C)(C)C(=O)O[C@H]1C[C@@H](C)C=C2C=C[C@H](C)[C@H](CC[C@@H]3C[C@@H](O)CC(=O)O3)[C@H]21 [Sim, Simvastatine, reference compound]
Total cholesterol, HDL [1]: 27.8 ± 2.7 mg/100 ml
Total cholesterol, LDL + VLDL [1]: 43.0 ± 8.3 mg/100 ml
Triglycerides, Serum [1]: 108.9 ± 6.9 mg/100 ml
Total cholesterol, Serum [2]: 73.6 ± 7.3 mg/100 ml
Total cholesterol, HDL [3]: 33.2 ± 1.8 mg/100 ml
Total cholesterol, LDL + VLDL [3]: 66.9 ± 13.4 mg/100 ml
Total cholesterol, Serum [3]: 100.1 ± 12.8 mg/100 ml
Triglycerides, Serum [3]: 119.9 ± 10.5 mg/100 ml
Total cholesterol, HDL [4]: 32.7 ± 1.2 mg/100 ml
Total cholesterol, LDL + VLDL [4]: 61.2 ± 9.7 mg/100 ml
Total cholesterol, Serum [4]: 93.9 ± 10.2 mg/100 ml
Triglycerides, Serum [4]: 142.0 ± 5.4 mg/100 ml
effect on HDL cholesterol (in words) (rats with cholesterol loading): did not effect
